This passage reports IC90 results from US12421211B2, “Heterocyclic compounds” (Hoffmann-La Roche Inc., priority 2021, dated 2025).

Where a name gives a salt, the structure may show the parent alone.

One assay has as its system Acinetobacter baumannii ATCC17961. Put plainly: Antimicrobial susceptibility testing: 90% growth inhibitory concentration (IC90) determination. The assay is classed as cell-based. The following applies: 90% growth inhibitory concentration, Acinetobacter baumannii ATCC17961, Iso-Sensitest broth, OD 600 nm over 16 h; formic acid; formate; read-out: ATCC 17961 IC90. Here is the method:
Assay Procedures Antimicrobial Susceptibility Testing: 90% Growth Inhibitory Concentration (IC90) Determination
The in vitro antimicrobial activity of the compounds was determined according to the following procedure:
The assay used a 10-points Iso-Sensitest broth medium to measure quantitatively the in vitro activity of the compounds against Acinetobacter baumannii ATCC17961.
Stock compounds in DMSO were serially twofold diluted (e.g. range from 50 to 0.097 μM final concentration) in 384 wells microtiter plates and inoculated with 49 μl the bacterial suspension in Iso-Sensitest medium to have a final cell concentration of ˜5×10^(5) CFU/ml in a final volume/well of 50 ul/well. Microtiter plates were incubated at 35±2° C.
Bacterial cell growth was determined with the measurement of optical density at λ=600 nm each 20 minutes over a time course of 16h. Growth inhibition was calculated during the logarithmic growth of the bacterial cells with determination of the concentration inhibiting 50% (IC50) and 90% (IC90) of the growth.
Table 1 provides the 90% growth inhibitory concentrations (IC90) in micromoles per liter of the compounds of present invention obtained against the strain Acinetobacter baumannii ATCC17961.
As a reminder, the IC90 is the point of the concentration-response curve where the effect stands at 90%. For `COCCn1ncc(-c2ccc(-c3cnc(C(=O)Nc4ccc(C(=O)N5CCN(C(=O)C6CC[N+](CC(=O)O)(CC7CNC7)CC6)CC5)c(Cl)c4)n3C)c(F)c2F)c1C` (stereo not shown) [Example B29, 2-[1-(azetidin-3-ylmethyl)-4-[4-[2-chloro-4-[[5-[2,3-difluoro-4-[1-(2-methoxyethyl)-5-methyl-pyrazol-4-yl]phenyl]-1-methyl-imidazole-2-carbonyl]amino]benzoyl]piperazine-1-carbonyl]piperidin-1-ium-1-yl]acetic acid; formic acid; formate], the IC90 was determined as 340 nM.

Still in this assay, the particulars now being: Acinetobacter baumannii, ATCC17961, 16 h, 90% growth inhibitory concentration, Acinetobacter baumannii ATCC17961, Iso-Sensitest broth, OD 600 nm over 16 h; read-out: ATCC 17961 IC90.
As to `COCCn1ncc(-c2ccc(-c3cnc(C(=O)Nc4ccc(C(=O)N5CCN(C(=O)C[N+]6(C)CCC(N)C6)CC5)c(Cl)c4)n3C)c(F)c2F)c1C` (stereo not shown) [Example C2, N-[4-[4-[2-(3-amino-1-methyl-pyrrolidin-1-ium-1-yl)acetyl]piperazine-1-carbonyl]-3-chloro-phenyl]-5-[2,3-difluoro-4-[1-(2-methoxyethyl)-5-methyl-pyrazol-4-yl]phenyl]-1-methyl-imidazole-2-carboxamide; formic acid; formate], the IC90 amounted to 41 nM.

Regarding `Cc1nn(CC(=O)Nc2ccncc2)cc1-c1ccc(-c2cnc(C(=O)Nc3ccc(C(=O)N4CCN(C(=O)C5CC[N+](C)(C)CC5)CC4)c(Cl)c3)n2C)c(F)c1F` [Example G17, N-[3-chloro-4-[4-(1,1-dimethylpiperidin-1-ium-4-carbonyl)piperazine-1-carbonyl]phenyl]-5-[2,3-difluoro-4-[3-methyl-1-[2-oxo-2-(4-pyridylamino)ethyl]pyrazol-4-yl]phenyl]-1-methyl-imidazole-2-carboxamide; chloride], the IC90 came out at 720 nM.

In the case of `COCCn1cc(-c2ccc(-c3cnc(C(=O)Nc4ccc(C(=O)N5CCN(C(=O)[C@@H]6C[C@H](O)C[N+]6(C)C)CC5)c(Cl)c4)n3C)c(F)c2F)c(C)n1` [Example D10, N-[3-chloro-4-[4-[(2S,4S)-4-hydroxy-1,1-dimethyl-pyrrolidin-1-ium-2-carbonyl]piperazine-1-carbonyl]phenyl]-5-[2,3-difluoro-4-[1-(2-methoxyethyl)-3-methyl-pyrazol-4-yl]phenyl]-1-methyl-imidazole-2-carboxamide; formate], the IC90 turned out to be 210 nM.

In the case of `Cc1ccc(NC(=O)NCCn2cc(-c3ccc(-c4cnc(C(=O)Nc5ccc(C(=O)N6CCN(C(=O)C7CC[N+](C)(C)CC7)CC6)c(Cl)c5)n4C)c(F)c3F)c(C)n2)cn1` [Example M1, N-[3-chloro-4-[4-(1,1-dimethylpiperidin-1-ium-4-carbonyl)piperazine-1-carbonyl]phenyl]-5-[2,3-difluoro-4-[3-methyl-1-[2-[(6-methyl-3-pyridyl)carbamoylamino]ethyl]pyrazol-4-yl]phenyl]-1-methyl-imidazole-2-carboxamide formate], the IC90 turned out to be 152 nM.

In the case of `CCc1c(-c2ccc(-c3cnc(C(=O)Nc4ccc(C(=O)N5CCN(C(=O)[C@@H]6C[C@@H](O)C[N+]6(C)C)CC5)c(Cl)c4)n3C)c(F)c2F)cnn1CCOC` [Example F20, N-[3-chloro-4-[4-[(2S,4R)-4-hydroxy-1,1-dimethyl-pyrrolidin-1-ium-2-carbonyl]piperazine-1-carbonyl]phenyl]-5-[4-[5-ethyl-1-(2-methoxyethyl)pyrazol-4-yl]-2,3-difluoro-phenyl]-1-methyl-imidazole-2-carboxamide; formate], the IC90 was found to be 180 nM.

In the case of `CC(O)Cn1cc(-c2ccc(-c3cnc(C(=O)Nc4ccc(C(=O)N5CCN(C(=O)C6CC[N+](C)(C)CC6)CC5)c(Cl)c4)n3C)c(F)c2F)c(C(F)(F)F)n1` (stereo not shown) [Example F33, N-[3-chloro-4-[4-(1,1-dimethylpiperidin-1-ium-4-carbonyl)piperazine-1-carbonyl]phenyl]-5-[2,3-difluoro-4-[1-(2-hydroxypropyl)-3-(trifluoromethyl)pyrazol-4-yl]phenyl]-1-methyl-imidazole-2-carboxamide; formate], the IC90 turned out to be 360 nM.

Turning to `COCCn1cc(-c2ccc(-c3cnc(C(=O)Nc4ccc(C(=O)N5CCN(C(=O)[C@@H]6C[C@@H](O)C[N+]6(C)C)CC5)c(Cl)c4)n3C)c(F)c2F)c(C)n1` [Example D7, N-[3-chloro-4-[4-[(2S,4R)-4-hydroxy-1,1-dimethyl-pyrrolidin-1-ium-2-carbonyl]piperazine-1-carbonyl]phenyl]-5-[2,3-difluoro-4-[1-(2-methoxyethyl)-3-methyl-pyrazol-4-yl]phenyl]-1-methyl-imidazole-2-carboxamide; formate], the IC90 worked out at 150 nM.

For `COCCn1ncc(-c2ccc(-c3cnc(C(=O)Nc4ccc(C(=O)N5CCN(C(=O)C6CC[N+](CC(=O)O)(CC7CNC7)CC6)CC5)c(Cl)c4)n3C)c(F)c2F)c1C` (stereo not shown) [Example B20, 2-[1-(azetidin-3-ylmethyl)-4-[4-[2-chloro-4-[[5-[2,3-difluoro-4-[1-(2-methoxyethyl)-5-methyl-pyrazol-4-yl]phenyl]-1-methyl-imidazole-2-carbonyl]amino]benzoyl]piperazine-1-carbonyl]piperidin-1-ium-1-yl]acetic acid; formic acid; formate], the IC90 worked out at 220 nM.

In the case of `Cc1nn(Cc2ccccn2)cc1-c1ccc(-c2cnc(C(=O)Nc3ccc(C(=O)N4CCN(C(=O)C5CC[N+](C)(C)CC5)CC4)c(Cl)c3)n2C)c(F)c1F` [Example F41, N-[3-chloro-4-[4-(1,1-dimethylpiperidin-1-ium-4-carbonyl)piperazine-1-carbonyl]phenyl]-5-[2,3-difluoro-4-[3-methyl-1-(2-pyridylmethyl)pyrazol-4-yl]phenyl]-1-methyl-imidazole-2-carboxamide; formate], the 90% effect concentration (IC90) was 150 nM.

The same assay, now with this note: Acinetobacter baumannii, ATCC17961, 16 h, read-out: ATCC 17961 IC90.
In the case of `COCCn1ncc(-c2ccc(-c3cnc(C(=O)Nc4ccc(C(=O)N5CCN(C(=O)C6CCN(CC7C[N+](C)(C)C7)CC6)CC5)c(Cl)c4)n3C)c(F)c2F)c1C` [Example B31, N-[3-chloro-4-[4-[1-[(1,1-dimethylazetidin-1-ium-3-yl)methyl]piperidine-4-carbonyl]piperazine-1-carbonyl]phenyl]-5-[2,3-difluoro-4-[1-(2-methoxyethyl)-5-methyl-pyrazol-4-yl]phenyl]-1-methyl-imidazole-2-carboxamide], the IC90 came to 71 nM.

Turning to `COCCn1cc(-c2ccc(-c3cnc(C(=O)Nc4ccc(C(=O)N5CCN(C(=O)C6CC[N+](CC(=O)O)(CC7CNC7)CC6)CC5)c(Cl)c4)n3C)c(F)c2F)c(C)n1` (stereo not shown) [Example B18, 2-[1-(azetidin-3-ylmethyl)-4-[4-[2-chloro-4-[[5-[2,3-difluoro-4-[1-(2-methoxyethyl)-3-methyl-pyrazol-4-yl]phenyl]-1-methyl-imidazole-2-carbonyl]amino]benzoyl]piperazine-1-carbonyl]piperidin-1-ium-1-yl]acetic acid; formic acid; formate], the IC90 stood at 430 nM.

For the compound `Cc1nn(CC(=O)Nc2ccc(F)nn2)cc1-c1ccc(-c2cnc(C(=O)Nc3ccc(C(=O)N4CCN(C(=O)C5CC[N+](C)(C)CC5)CC4)c(Cl)c3)n2C)cc1F` [Example L2, N-[3-chloro-4-[4-(1,1-dimethylpiperidin-1-ium-4-carbonyl)piperazine-1-carbonyl]phenyl]-5-[3-fluoro-4-[1-[2-[(6-fluoropyridazin-3-yl)amino]-2-oxo-ethyl]-3-methyl-pyrazol-4-yl]phenyl]-1-methyl-imidazole-2-carboxamide; formate], the IC90 stood at 168 nM.
